Results reported in the supplement of paper PMC11451515.

Legend:
Conditions in all cases: 48 h
[1] = test system: SEM cells; assay: cell viability relative to DMSO control; higher = less cytotoxic
Outline: (§1)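 Library compounds in DMSO were pin-dosed in an 11-point threefold series (47 μM to 0.79 nM) onto leukemia cells in 1536-well plates (5 μl). Plates held 500 cells/well of NOMO1 or SEM or 1000 cells/well of P12-Ichikawa, each adapted for at least four passages in each medium. Luminescence was read with CellTiter-Glo One after 48 h at 37°C. Viability means the per-plate percentage relative to DMSO wells, using cell-free wells as background.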

[2] = test system: NOMO1; assay: as above
Outline: as §1

[3] = test system: P12-Ichikawa; assay: as above
Outline: as §1

[4] = test system: SEM cells; assay: AUC of viability dose-response curve (% viability x log10 dose units); higher = less sensitive
Outline: (§2)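 Medium-adapted leukemia cells in 1536-well plates, at 500 or 1000 cells/well, were incubated for 48 h at 37°C with library compounds in DMSO at 11 threefold doses from 47 μM to 0.79 nM. CellTiter-Glo One luminescence normalised per plate to DMSO and cell-free wells was fitted with a four-parameter log-logistic model over log10 doses. Area under the curve was integrated from this fit by trapezoidal rule, with curves beyond full viability scaled and failed quality-control curves removed.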

[5] = test system: NOMO1; assay: as above
Outline: as §2

[6] = test system: P12-Ichikawa; assay: as above
Outline: as §2

[7] = HPLM + 10% dialyzed FBS, 0.000781 µM
[8] = HPLM + 10% dialyzed FBS, 0.00234 µM
[9] = HPLM + 10% dialyzed FBS, 0.00702 µM
[10] = HPLM + 10% dialyzed FBS, 0.0211 µM
[11] = HPLM + 10% dialyzed FBS, 0.0632 µM
[12] = HPLM + 10% dialyzed FBS, 0.19 µM
[13] = HPLM + 10% dialyzed FBS, 0.569 µM
[14] = HPLM + 10% dialyzed FBS, 1.71 µM
[15] = HPLM + 10% dialyzed FBS, 5.12 µM
[16] = HPLM + 10% dialyzed FBS, 15.4 µM
[17] = HPLM + 10% dialyzed FBS, 46.1 µM
[18] = RPMI 5 mM glucose + 10% FBS, 0.000781 µM
[19] = RPMI 5 mM glucose + 10% FBS, 0.00234 µM
[20] = RPMI 5 mM glucose + 10% FBS, 0.00702 µM
[21] = RPMI 5 mM glucose + 10% FBS, 0.0211 µM
[22] = RPMI 5 mM glucose + 10% FBS, 0.0632 µM
[23] = RPMI 5 mM glucose + 10% FBS, 0.19 µM
[24] = RPMI 5 mM glucose + 10% FBS, 0.569 µM
[25] = RPMI 5 mM glucose + 10% FBS, 1.71 µM
[26] = RPMI 5 mM glucose + 10% FBS, 5.12 µM
[27] = RPMI 5 mM glucose + 10% FBS, 15.4 µM
[28] = RPMI 5 mM glucose + 10% FBS, 46.1 µM
[29] = RPMI 5 mM glucose + 10% dialyzed FBS, 0.000781 µM
[30] = RPMI 5 mM glucose + 10% dialyzed FBS, 0.00234 µM
[31] = RPMI 5 mM glucose + 10% dialyzed FBS, 0.00702 µM
[32] = RPMI 5 mM glucose + 10% dialyzed FBS, 0.0211 µM
[33] = RPMI 5 mM glucose + 10% dialyzed FBS, 0.0632 µM
[34] = RPMI 5 mM glucose + 10% dialyzed FBS, 0.19 µM
[35] = RPMI 5 mM glucose + 10% dialyzed FBS, 0.569 µM
[36] = RPMI 5 mM glucose + 10% dialyzed FBS, 1.71 µM
[37] = RPMI 5 mM glucose + 10% dialyzed FBS, 5.12 µM
[38] = RPMI 5 mM glucose + 10% dialyzed FBS, 15.4 µM
[39] = RPMI 5 mM glucose + 10% dialyzed FBS, 46.1 µM
[40] = RPMI 5 mM glucose + 10% dialyzed FBS

CC[C@@H]([C@H](C)O)n1ncn(-c2ccc(N3CCN(c4ccc(OCC5CO[C@@](Cn6cncn6)(c6ccc(F)cc6F)C5)cc4)CC3)cc2)c1=O (stereo partly drawn)
cell viability [1, 7]: 92.3%
cell viability [1, 8]: 110%
cell viability [1, 9]: 107%
cell viability [1, 10]: 107%
cell viability [1, 11]: 114%
cell viability [1, 12]: 100%
cell viability [1, 13]: 107%
cell viability [1, 14]: 100%
cell viability [1, 15]: 102%
cell viability [1, 16]: 59.1%
cell viability [1, 17]: 82.7%
cell viability [1, 18]: 96.7%
cell viability [1, 19]: 101%
cell viability [1, 20]: 109%
cell viability [1, 21]: 105%
cell viability [1, 22]: 105%
cell viability [1, 23]: 115%
cell viability [1, 24]: 93.8%
cell viability [1, 25]: 103%
cell viability [1, 26]: 86.9%
cell viability [1, 27]: 87.7%
cell viability [1, 28]: 78.2%
cell viability [1, 29]: 112%
cell viability [1, 30]: 111%
cell viability [1, 31]: 108%
cell viability [1, 32]: 124%
cell viability [1, 33]: 106%
cell viability [1, 34]: 105%
cell viability [1, 35]: 106%
cell viability [1, 36]: 115%
cell viability [1, 37]: 102%
cell viability [1, 38]: 90.7%
cell viability [1, 39]: 81.8%
cell viability [2, 7]: 109%
cell viability [2, 8]: 106%
cell viability [2, 9]: 91.5%
cell viability [2, 10]: 112%
cell viability [2, 11]: 106%
cell viability [2, 12]: 98.2%
cell viability [2, 13]: 109%
cell viability [2, 14]: 107%
cell viability [2, 15]: 82.4%
cell viability [2, 16]: 94.8%
cell viability [2, 17]: 84.9%
cell viability [2, 18]: 101%
cell viability [2, 19]: 97.3%
cell viability [2, 20]: 93.3%
cell viability [2, 21]: 97%
cell viability [2, 22]: 83.5%
cell viability [2, 23]: 91.4%
cell viability [2, 24]: 87.3%
cell viability [2, 25]: 87%
cell viability [2, 26]: 87.5%
cell viability [2, 27]: 82.3%
cell viability [2, 28]: 78.1%
cell viability [2, 29]: 95.1%
cell viability [2, 30]: 90.3%
cell viability [2, 31]: 92.6%
cell viability [2, 32]: 81.3%
cell viability [2, 33]: 93.6%
cell viability [2, 34]: 83.4%
cell viability [2, 35]: 92.1%
cell viability [2, 36]: 90.1%
cell viability [2, 37]: 90.4%
cell viability [2, 38]: 87.1%
cell viability [2, 39]: 78.2%
cell viability [3, 7]: 102%
cell viability [3, 8]: 99.8%
cell viability [3, 9]: 101%
cell viability [3, 10]: 96.3%
cell viability [3, 11]: 98.3%
cell viability [3, 12]: 91.1%
cell viability [3, 13]: 100%
cell viability [3, 14]: 92.2%
cell viability [3, 15]: 90.8%
cell viability [3, 16]: 84.9%
cell viability [3, 17]: 85.1%
cell viability [3, 18]: 101%
cell viability [3, 19]: 102%
cell viability [3, 20]: 104%
cell viability [3, 21]: 97.8%
cell viability [3, 22]: 95%
cell viability [3, 23]: 102%
cell viability [3, 24]: 92.3%
cell viability [3, 25]: 91.1%
cell viability [3, 26]: 92.1%
cell viability [3, 27]: 88.3%
cell viability [3, 28]: 82.6%
cell viability [3, 29]: 87.2%
cell viability [3, 30]: 98%
cell viability [3, 31]: 95.1%
cell viability [3, 32]: 97.9%
cell viability [3, 33]: 90.9%
cell viability [3, 34]: 87.7%
cell viability [3, 35]: 85.7%
cell viability [3, 36]: 89.8%
cell viability [3, 37]: 85.1%
cell viability [3, 38]: 83.5%
cell viability [3, 39]: 75%
AUC of viability dose-response curve ([4]; HPLM + 10% dialyzed FBS): 452
AUC of viability dose-response curve ([4]; RPMI 5 mM glucose + 10% FBS): 452
AUC of viability dose-response curve [4, 40]: 458
AUC of viability dose-response curve ([5]; HPLM + 10% dialyzed FBS): 457
AUC of viability dose-response curve ([5]; RPMI 5 mM glucose + 10% FBS): 427
AUC of viability dose-response curve [5, 40]: 423
AUC of viability dose-response curve ([6]; HPLM + 10% dialyzed FBS): 450
AUC of viability dose-response curve ([6]; RPMI 5 mM glucose + 10% FBS): 447
AUC of viability dose-response curve [6, 40]: 425
